# From US11197826B2, “Oil-in-water emulsions including retinoic acid” (NOVARTIS AG, priority 2015, dated 2021)
# What was measured:
# [1] = Mucosal antibody responses after MF59-adjuvanted immunisation; assay type: in vivo, mice
# Method: To assess antibody responses mice were injected with 3 doses of either ovalbumin or H56 (a […] antigen) on days 0, 21, and 42, adjuvanted with MF59. The day before and after each immunization one group of mice were given retinoic acid whereas control mice received a plain vehicle instead. Serum IgG and vaginal wash IgA antibody responses were assessed at day 56. IgA-secreting cells were also measured in the bone marrow.
# [2] = cited from earlier work
# [3] = tested on: CCR9 on CD4+ T-cells expressing the DO-11.10 T-cell receptor; assay: Adoptive T-cell transfer with fingolimod: CCR9 expression and proliferation of DO-11.10 CD4+ T-cells in draining lymph nodes; assay type: in vivo, mice; settings: FACS, MF59-adjuvanted ovalbumin plus retinoic acid versus MF59 plus plain vehicle
# Method: Reference describes experimental protocols for studying the homing of T-cells in mice who receive retinoic acid. In brief, T-cells specific for test antigens (in the present case, ovalbumin) are adoptively transferred into mice and their behaviour in response to specific treatments is studied. This general experimental procedure was used to assess the effect of MF59 and retinoic acid on CCR9 expression in T-cells, and on their in vivo migration.
# Mice were injected intravenously with 2×10^6 CD4^+ T-cells which react to ovalbumin peptides (DO-11.10 cells). These cells were labelled with CFSE before being administered. At around the same time they were given either retinoic acid or a plain vehicle. The next day they received MF59-adjuvanted ovalbumin, and the next day they again received RA or plain vehicle, plus fingolimod (which blocks the egress of lymphocytes from lymph nodes). A few days later their draining lymph nodes were drained and CD4^+ T-cells expressing the DO-11.10 T-cell receptor were tested for CCR9 expression by FACS. The CFSE label was used to trace cell proliferation.
compound,measurement,setting,value
CC1=C(/C=C/C(C)=C/C=C/C(C)=C/C(=O)O)C(C)(C)CCC1 [retinoic acid],"proportion of IgA-secreting cells, fold higher, H56","[1]; bone marrow, H56 adjuvanted with MF59, retinoic acid versus plain vehicle",around 12 ×
same,"proportion of IgA-secreting cells, fold higher, ovalbumin","[1]; bone marrow, ovalbumin adjuvanted with MF59, retinoic acid versus plain vehicle",about 7 ×
same,antigen-specific IgA titres in vaginal washes,"[1]; day 56, 3 MF59-adjuvanted doses, plain vehicle essentially zero",about 1250
same,solubility in oil,[2],soluble
same,solubility in water,[2],sparingly soluble
same,"number of CCR9-positive cells, fold higher",[3],about 5 ×
